Reference: paper PMC7347136 (PLoS ONE, 2020)
Where two headings read alike, the source gives them in different places.

Columns and labels:
ZAP70 = biological target: T1, ZAP70 (Homo sapiens, UniProt P43403); experiment: Carna kinase panel screen; assay type: biochemical; settings: read-out: % Inhibition ± SD
T1 construct: purchased Carna Biosciences
In short: (§1)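 Inhibition was measured across ten compound concentrations at Km-approximating ATP. A four-parameter logistic curve fitted to the percentage-inhibition data yields the IC50.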

FLT3 = biological target: T2, FLT3 (Homo sapiens, UniProt P36888); experiment: Carna kinase panel screen; assay type: biochemical; settings: read-out: % Inhibition ± SD
T2 construct: purchased Carna Biosciences
In short: (§2)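 ATP was used at roughly Km levels while compounds were titrated over a 10-point curve. IC50 values came from four-parameter logistic fits of concentration versus percentage inhibition.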

RSK2 = biological target: T3, RSK2 (Homo sapiens, UniProt P51812); experiment: Carna kinase panel screen; assay type: biochemical; settings: read-out: % Inhibition ± SD
T3 construct: purchased Carna Biosciences
In short: as §1

CDK4 = biological target: T4, CDK4 (Homo sapiens, UniProt P11802); experiment: Carna kinase panel screen; assay type: biochemical; settings: read-out: % Inhibition ± SD
T4 construct: purchased Carna Biosciences
In short: as §2

AurC = biological target: T5, AurC (Homo sapiens, UniProt Q9UQB9); experiment: Carna kinase panel screen; assay type: biochemical; settings: read-out: % Inhibition ± SD
T5 construct: purchased Carna Biosciences
In short: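 IC50 from a 10-point concentration series run at ATP near Km; percent inhibition per concentration fitted to a four-parameter logistic curve.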

MLK2 = biological target: T6, MLK2 (Homo sapiens, UniProt Q02779); experiment: Carna kinase panel screen; assay type: biochemical; settings: read-out: % Inhibition ± SD
T6 construct: purchased Carna Biosciences
In short: as §1

SGK3 = biological target: T7, SGK3 (Homo sapiens, UniProt Q96BR1); experiment: Carna kinase panel screen; assay type: biochemical; settings: read-out: % Inhibition ± SD
T7 construct: purchased Carna Biosciences
In short: as §1

PBK = biological target: T8, PBK (Homo sapiens, UniProt Q96KB5); experiment: Carna kinase panel screen; assay type: biochemical; settings: read-out: % Inhibition ± SD
T8 construct: purchased Carna Biosciences
In short: as §1

CaMK1d = biological target: T9, CaMK1d (Homo sapiens, UniProt Q8IU85); experiment: Carna kinase panel screen; assay type: biochemical; settings: read-out: % Inhibition ± SD
T9 construct: purchased Carna Biosciences
In short: as §1

NDR1 = biological target: T10, NDR1 (Homo sapiens, UniProt Q15208); experiment: Carna kinase panel screen; assay type: biochemical; settings: read-out: % Inhibition ± SD
T10 construct: purchased Carna Biosciences
In short: as §1

MAP2K2 = biological target: T11, MAP2K2 (Homo sapiens, UniProt P36507); experiment: Carna kinase panel screen; assay type: biochemical; settings: read-out: % Inhibition ± SD
T11 construct: purchased Carna Biosciences
In short: as §1

JNK1 = biological target: T12, JNK1 (Homo sapiens, UniProt P45983); experiment: Carna kinase panel screen; assay type: biochemical; settings: read-out: % Inhibition ± SD
T12 construct: purchased Carna Biosciences
In short: as §1

AXL = biological target: T13, AXL (Homo sapiens, UniProt P30530); experiment: Carna kinase panel screen; assay type: biochemical; settings: read-out: % Inhibition ± SD
T13 construct: purchased Carna Biosciences
In short: as §1

LCK = biological target: T14, LCK (Homo sapiens, UniProt P06239); experiment: Carna kinase panel screen; assay type: biochemical; settings: read-out: % Inhibition ± SD
T14 construct: purchased Carna Biosciences
In short: as §1

BMPR1A = biological target: T15, BMPR1A (Homo sapiens, UniProt P36894); experiment: Carna kinase panel screen; assay type: biochemical; settings: read-out: % Inhibition ± SD
T15 construct: purchased Carna Biosciences
In short: as §1

BLK = biological target: T16, BLK (Homo sapiens, UniProt P51451); experiment: Carna kinase panel screen; assay type: biochemical; settings: read-out: % Inhibition ± SD
T16 construct: purchased Carna Biosciences
In short: as §1

subcutaneous HL60 tumors = experiment: HL-60 human promyelocytic leukemia xenograft model; assay type: in vivo, athymic NCr-nu/nu mice
Text: Five-week-old female athymic NCr-nu/nu mice were purchased from Harlan Sprague-Dawley (Prattville, AL). The animals were housed in microisolator cages, with up to five animals per cage in a 12-h light/dark cycle. The animals received filtered water and sterilized rodent diet (Harlan-Teklad TD8656) ad libitum. Each mouse was implanted subcutaneously near the right flank with ten million HL-60 cells using a 23-gauge needle and allowed to grow. Tumors were allowed to reach 75–144 mm^3 in size before treatment initiation. […] The %TGI values were calculated and statistical analyses performed as above.

[1] = test system: all five cell lines (Cal51, MDA-MB-468, HCC1954, MCF10A, 184A1); experiment: Standard 72 h viability assay, breast panel; assay type: cell-based; settings: Homo sapiens
Experimental: (§3) Solid tumor cell lines were seeded in 100 μl medium into 96-well plates at an appropriate cell number determined by a cell dilution assay (Cal51–2000 cells/well; Colo205, MCF10A and 184A1–3000 cells/well and MDA-MB-468, HCC1954–4000 cells/well). AML suspension cells were seeded in 96-well plates at approximately 3000 cells per well. Cells were incubated overnight at 37°C, 5% CO2. The following day, 100 μl fresh medium containing increasing concentrations of appropriate compound was added and the cells were incubated for up to 72 h at 37°C, 5% CO2. For pulse treatment of solid (adherent) tumor cell lines, medium was aspirated and replaced with fresh drug-free medium. For pulse treatment of suspension lines, plates were centrifuged at 478 xg for 5 min at the end of the incubation period with compound, medium containing compound was carefully aspirated and replaced with fresh compound-free medium. A total of 72 h after the start of treatment, 20 μl of a 10X stock of resazurin sodium salt (Sigma-Aldrich, Dorset, UK) prepared in medium was added to the cells and incubated for up to 3 h. […] was measured on the Wallac Victor plate reader (Cambridge, UK) at 544–595 nm. IC50/70/90 calculations were determined in XLFit.

panel of 256 kinases = experiment: Carna 256-kinase selectivity panel, overall; assay type: biochemical; settings: 1 μM
Experimental: IC50 values were determined from a 10-point concentration curve using ATP concentrations approximating Km values. […] The percentage inhibition of each test solution was calculated, which allowed the IC50 value to be determined from concentration versus percentage inhibition curves by fitting to a four parameter logistic curve.

Cal51 = experiment: Resazurin reduction cell viability assay; assay type: cell-based; settings: Homo sapiens
Experimental: as §3

HL60 = experiment: Resazurin reduction cell viability assay; assay type: cell-based; settings: Homo sapiens
Experimental: as §3

HCC1954 = experiment: Resazurin reduction cell viability assay; assay type: cell-based; settings: Homo sapiens
Experimental: as §3

MDA-MB-468 = experiment: Resazurin reduction cell viability assay; assay type: cell-based; settings: Homo sapiens
Experimental: as §3

ML-2 = experiment: Resazurin reduction cell viability assay; assay type: cell-based; settings: Homo sapiens
Experimental: as §3

Kasumi-1 = experiment: Resazurin reduction cell viability assay; assay type: cell-based; settings: Homo sapiens
Experimental: as §3

Nomo-1 = experiment: Resazurin reduction cell viability assay; assay type: cell-based; settings: Homo sapiens
Experimental: as §3

EOL-1 = experiment: Resazurin reduction cell viability assay; assay type: cell-based; settings: Homo sapiens
Experimental: as §3

[2] = 72 h continuous, read-out: 72 h continuous IC50 ± SD
[3] = read-out: 6 h pulse IC50 ± SD, 6 h pulse then 66 h release

T5 sequence (Q9UQB9 whole entry): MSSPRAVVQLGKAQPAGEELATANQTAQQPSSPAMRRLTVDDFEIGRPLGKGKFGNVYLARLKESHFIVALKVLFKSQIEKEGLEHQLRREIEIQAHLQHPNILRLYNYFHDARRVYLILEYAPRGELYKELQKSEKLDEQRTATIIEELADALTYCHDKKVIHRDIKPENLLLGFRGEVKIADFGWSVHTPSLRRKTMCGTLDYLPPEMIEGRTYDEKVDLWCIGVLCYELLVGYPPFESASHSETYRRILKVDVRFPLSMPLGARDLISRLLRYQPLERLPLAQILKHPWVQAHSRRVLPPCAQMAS
T6 sequence (Q02779 whole entry): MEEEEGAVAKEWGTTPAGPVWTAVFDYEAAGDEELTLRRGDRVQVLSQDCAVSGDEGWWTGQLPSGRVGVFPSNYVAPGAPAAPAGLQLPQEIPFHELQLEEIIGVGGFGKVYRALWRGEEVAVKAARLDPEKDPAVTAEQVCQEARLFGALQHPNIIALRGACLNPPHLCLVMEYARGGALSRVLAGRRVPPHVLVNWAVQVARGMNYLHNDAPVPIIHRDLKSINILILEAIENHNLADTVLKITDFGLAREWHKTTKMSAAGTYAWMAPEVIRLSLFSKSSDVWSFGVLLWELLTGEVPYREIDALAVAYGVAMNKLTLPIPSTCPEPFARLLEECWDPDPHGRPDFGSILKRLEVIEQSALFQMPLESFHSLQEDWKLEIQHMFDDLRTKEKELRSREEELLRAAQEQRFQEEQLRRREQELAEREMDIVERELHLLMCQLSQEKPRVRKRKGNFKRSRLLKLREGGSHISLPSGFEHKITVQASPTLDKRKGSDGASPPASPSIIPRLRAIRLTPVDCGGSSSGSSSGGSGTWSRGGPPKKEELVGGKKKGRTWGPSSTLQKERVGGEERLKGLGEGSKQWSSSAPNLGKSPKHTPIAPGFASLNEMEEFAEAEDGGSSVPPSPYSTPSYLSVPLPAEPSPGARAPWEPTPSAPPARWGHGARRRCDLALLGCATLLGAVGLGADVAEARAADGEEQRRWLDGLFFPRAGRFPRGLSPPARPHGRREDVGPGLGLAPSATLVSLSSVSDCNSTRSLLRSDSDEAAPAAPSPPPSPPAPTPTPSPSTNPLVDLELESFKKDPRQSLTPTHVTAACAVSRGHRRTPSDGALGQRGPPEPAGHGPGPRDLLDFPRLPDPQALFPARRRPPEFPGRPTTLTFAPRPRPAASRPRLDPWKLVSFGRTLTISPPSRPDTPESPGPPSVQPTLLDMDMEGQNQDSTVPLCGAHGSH
T7 sequence (Q96BR1 whole entry): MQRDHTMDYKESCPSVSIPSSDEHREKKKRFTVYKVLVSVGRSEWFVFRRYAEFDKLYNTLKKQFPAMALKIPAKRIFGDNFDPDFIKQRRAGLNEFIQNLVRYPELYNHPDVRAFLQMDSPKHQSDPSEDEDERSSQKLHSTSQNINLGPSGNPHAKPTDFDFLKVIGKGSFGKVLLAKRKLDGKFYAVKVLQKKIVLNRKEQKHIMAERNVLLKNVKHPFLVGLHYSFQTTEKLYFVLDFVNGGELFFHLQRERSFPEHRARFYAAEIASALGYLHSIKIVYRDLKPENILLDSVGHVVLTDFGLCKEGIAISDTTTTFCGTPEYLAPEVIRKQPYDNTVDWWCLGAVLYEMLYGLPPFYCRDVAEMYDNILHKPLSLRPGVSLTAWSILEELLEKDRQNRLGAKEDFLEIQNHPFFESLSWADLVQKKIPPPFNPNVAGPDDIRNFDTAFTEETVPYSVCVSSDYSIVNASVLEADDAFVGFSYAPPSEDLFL
T14 sequence (P06239 whole entry): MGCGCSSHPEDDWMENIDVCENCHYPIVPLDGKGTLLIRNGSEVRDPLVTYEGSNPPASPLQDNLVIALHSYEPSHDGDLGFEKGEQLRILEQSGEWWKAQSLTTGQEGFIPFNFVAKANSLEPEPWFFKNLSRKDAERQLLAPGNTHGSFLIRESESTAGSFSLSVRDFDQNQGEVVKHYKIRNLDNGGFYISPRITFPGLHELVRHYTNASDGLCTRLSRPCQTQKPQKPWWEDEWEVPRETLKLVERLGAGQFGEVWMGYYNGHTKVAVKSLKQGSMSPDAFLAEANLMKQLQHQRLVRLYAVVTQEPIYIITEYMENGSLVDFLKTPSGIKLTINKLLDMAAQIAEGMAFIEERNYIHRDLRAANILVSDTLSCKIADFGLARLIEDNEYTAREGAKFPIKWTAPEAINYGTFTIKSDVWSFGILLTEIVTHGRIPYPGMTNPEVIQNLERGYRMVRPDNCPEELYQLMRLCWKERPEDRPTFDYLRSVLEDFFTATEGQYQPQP
T3 sequence (P51812 whole entry): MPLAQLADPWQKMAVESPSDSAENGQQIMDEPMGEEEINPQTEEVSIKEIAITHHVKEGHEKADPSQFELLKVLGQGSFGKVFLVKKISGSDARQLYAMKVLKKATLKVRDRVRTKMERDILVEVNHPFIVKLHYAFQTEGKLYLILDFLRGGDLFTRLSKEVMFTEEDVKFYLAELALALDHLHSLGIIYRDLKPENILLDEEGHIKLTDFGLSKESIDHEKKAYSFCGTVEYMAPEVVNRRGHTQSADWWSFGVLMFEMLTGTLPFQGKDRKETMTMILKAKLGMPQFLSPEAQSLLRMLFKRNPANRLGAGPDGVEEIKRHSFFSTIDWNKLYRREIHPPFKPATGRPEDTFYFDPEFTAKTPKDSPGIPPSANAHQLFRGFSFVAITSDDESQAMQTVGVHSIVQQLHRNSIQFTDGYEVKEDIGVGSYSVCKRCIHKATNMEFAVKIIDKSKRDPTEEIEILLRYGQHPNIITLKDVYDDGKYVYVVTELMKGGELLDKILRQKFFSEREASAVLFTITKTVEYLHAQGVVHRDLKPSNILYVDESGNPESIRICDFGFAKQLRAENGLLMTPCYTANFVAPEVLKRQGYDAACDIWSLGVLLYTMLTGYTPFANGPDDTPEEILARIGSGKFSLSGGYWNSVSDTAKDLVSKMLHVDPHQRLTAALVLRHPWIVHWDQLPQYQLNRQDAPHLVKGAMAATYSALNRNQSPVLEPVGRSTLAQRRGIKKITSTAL
T13 sequence (P30530 26-894): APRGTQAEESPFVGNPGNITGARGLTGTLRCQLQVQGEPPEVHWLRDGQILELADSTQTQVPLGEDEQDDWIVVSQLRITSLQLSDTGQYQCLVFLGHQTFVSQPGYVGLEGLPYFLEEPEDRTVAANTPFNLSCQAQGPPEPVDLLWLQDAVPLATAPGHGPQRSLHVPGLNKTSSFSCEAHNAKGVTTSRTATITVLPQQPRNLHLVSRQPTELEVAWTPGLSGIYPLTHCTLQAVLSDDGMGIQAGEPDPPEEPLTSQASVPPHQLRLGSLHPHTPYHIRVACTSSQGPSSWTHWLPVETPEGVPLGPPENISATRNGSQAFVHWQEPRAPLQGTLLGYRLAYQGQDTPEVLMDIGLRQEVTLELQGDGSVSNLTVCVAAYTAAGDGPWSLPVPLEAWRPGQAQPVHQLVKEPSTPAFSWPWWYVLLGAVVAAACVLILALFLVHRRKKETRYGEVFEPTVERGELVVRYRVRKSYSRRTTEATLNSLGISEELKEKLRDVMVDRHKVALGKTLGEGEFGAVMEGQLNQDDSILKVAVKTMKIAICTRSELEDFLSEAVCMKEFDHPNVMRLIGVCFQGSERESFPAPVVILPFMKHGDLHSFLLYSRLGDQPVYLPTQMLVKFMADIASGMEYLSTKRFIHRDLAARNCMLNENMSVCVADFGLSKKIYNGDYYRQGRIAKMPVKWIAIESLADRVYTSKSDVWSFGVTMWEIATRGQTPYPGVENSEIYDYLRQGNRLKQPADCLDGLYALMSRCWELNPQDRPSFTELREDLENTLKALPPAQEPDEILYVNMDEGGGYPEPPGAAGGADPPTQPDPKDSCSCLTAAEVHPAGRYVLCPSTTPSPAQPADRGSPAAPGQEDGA
T1 sequence (P43403 whole entry): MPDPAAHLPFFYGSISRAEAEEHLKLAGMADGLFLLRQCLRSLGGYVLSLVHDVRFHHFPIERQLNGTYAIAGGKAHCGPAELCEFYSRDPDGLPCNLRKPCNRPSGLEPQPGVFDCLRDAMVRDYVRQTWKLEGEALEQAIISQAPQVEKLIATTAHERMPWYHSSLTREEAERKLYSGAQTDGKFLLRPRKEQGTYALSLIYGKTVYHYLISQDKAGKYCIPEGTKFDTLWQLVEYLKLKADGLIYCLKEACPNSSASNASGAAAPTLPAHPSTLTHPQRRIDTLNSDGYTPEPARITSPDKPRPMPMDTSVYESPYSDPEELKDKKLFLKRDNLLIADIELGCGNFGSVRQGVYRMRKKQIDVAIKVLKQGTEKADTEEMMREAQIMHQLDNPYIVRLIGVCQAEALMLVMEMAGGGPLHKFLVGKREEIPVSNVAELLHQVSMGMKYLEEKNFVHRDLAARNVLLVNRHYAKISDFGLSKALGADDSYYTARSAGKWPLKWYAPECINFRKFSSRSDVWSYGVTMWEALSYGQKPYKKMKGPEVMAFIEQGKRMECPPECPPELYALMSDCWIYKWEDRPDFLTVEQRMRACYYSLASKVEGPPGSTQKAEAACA
T10 sequence (Q15208 whole entry): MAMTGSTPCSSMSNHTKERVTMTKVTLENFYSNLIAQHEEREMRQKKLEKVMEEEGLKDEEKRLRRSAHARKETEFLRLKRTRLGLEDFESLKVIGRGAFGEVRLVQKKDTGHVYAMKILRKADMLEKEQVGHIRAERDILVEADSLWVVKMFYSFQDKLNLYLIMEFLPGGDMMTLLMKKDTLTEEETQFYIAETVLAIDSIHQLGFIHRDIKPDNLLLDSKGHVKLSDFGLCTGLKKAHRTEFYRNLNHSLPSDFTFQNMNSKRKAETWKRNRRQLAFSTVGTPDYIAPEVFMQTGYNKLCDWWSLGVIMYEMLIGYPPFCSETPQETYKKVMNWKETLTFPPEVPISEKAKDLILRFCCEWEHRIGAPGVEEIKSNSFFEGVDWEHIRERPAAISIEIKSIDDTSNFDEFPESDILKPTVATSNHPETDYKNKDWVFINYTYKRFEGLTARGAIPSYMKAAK

SMILES: CC[C@H](Nc1nc(NCc2cnc(C)cc2C)c2ncn(C(C)C)c2n1)[C@@H](C)O [Fadraciclib, 2-pentanol, 3-[[6-[[(4,6-dimethyl-3-pyridinyl)methyl]amino]-9-(1-methylethyl)-9Hpurin-2-yl]amino]-, (2R,3S)]
- inhibition at 1 µM (ZAP70): -11.6 ± 0.3%
- inhibition at 1 µM (FLT3): -8.7 ± 0.1%
- inhibition at 1 µM (RSK2): 5.6 ± 0.1%
- inhibition at 1 µM (CDK4): 75.7 ± 5%
- inhibition at 1 µM (AurC): 3 ± 0.2%
- inhibition at 1 µM (MLK2): 0.6%
- inhibition at 1 µM (SGK3): 6.2 ± 0.1%
- inhibition at 1 µM (PBK): -0.9%
- inhibition at 1 µM (CaMK1d): -14.5 ± 0.1%
- inhibition at 1 µM (NDR1): 2 ± 0.1%
- inhibition at 1 µM (MAP2K2): 4.1%
- inhibition at 1 µM (JNK1): -13.5 ± 1.3%
- inhibition at 1 µM (AXL): -11.1 ± 0.1%
- inhibition at 1 µM (LCK): -7.3 ± 0.1%
- inhibition at 1 µM (BMPR1A): 2.2%
- inhibition at 1 µM (BLK): -3.6%
- mean body weight loss (subcutaneous HL60 tumors; 70 mg/kg oral (highest dose)): 8%
- tumor growth delay T-C (subcutaneous HL60 tumors; 70 mg/kg oral, 5 days on/2 days off, 2 cycles): > 12.6 days
- TGI (subcutaneous HL60 tumors; 70 mg/kg oral, Day 11): 90%
- tumor regression (subcutaneous HL60 tumors; 70 mg/kg oral, groups of 10 animals): Two animals achieved tumor regression and one was determined to be tumor-free
- IC50 [1]: ≤ 400 nM
- number of kinases inhibited >50% (panel of 256 kinases): 9
- IC50 (Cal51; CAL-51, read-out: 8 h pulse IC50 ± SD, Cal51 (TNBC), 8 h pulse, read at 72 h): 680 ± 200 nM
- IC50 (Cal51; CAL-51, Cal51, continuous 72 h, read-out: continuous IC50 ± SD): 230 ± 40 nM
- IC90 (HL60; HL-60, 6 h pulse then 66 h release): 1600 nM
- IC50 (HL60; HL-60, 72 h continuous, read-out: 72 h continuous IC50 ± SD): 440 ± 70 nM
- IC50 (HL60; HL-60, read-out: 6 h pulse IC50 ± SD, 6 h pulse then 66 h release): 790 ± 140 nM
- IC50 (HCC1954; read-out: 8 h pulse IC50 ± SD, HCC1954 (HER2 amplified), 8 h pulse, read at 72 h): 480 ± 50 nM
- IC50 (HCC1954; HCC1954, continuous 72 h, read-out: continuous IC50 ± SD): 400 ± 30 nM
- IC50 (MDA-MB-468; read-out: 8 h pulse IC50 ± SD, MDA-MB-468 (TNBC), 8 h pulse, read at 72 h): 990 ± 340 nM
- IC50 (MDA-MB-468; MDA-MB-468, continuous 72 h, read-out: continuous IC50 ± SD): 380 ± 170 nM
- IC90 (ML-2; 6 h pulse then 66 h release): 590 nM
- IC50 (ML-2; [2]): 190 ± 50 nM
- IC50 (ML-2; [3]): 330 ± 120 nM
- IC90 (Kasumi-1; 6 h pulse then 66 h release): 570 nM
- IC50 (Kasumi-1; [2]): 230 ± 40 nM
- IC50 (Kasumi-1; [3]): 320 ± 50 nM
- IC90 (Nomo-1; 6 h pulse then 66 h release): 1800 nM
- IC50 (Nomo-1; [2]): 290 ± 50 nM
- IC50 (Nomo-1; [3]): 660 ± 110 nM
- IC90 (EOL-1; EOL1, 6 h pulse then 66 h release): 560 nM
- IC50 (EOL-1; EOL1, 72 h continuous, read-out: 72 h continuous IC50 ± SD): 370 ± 50 nM
- IC50 (EOL-1; EOL1, read-out: 6 h pulse IC50 ± SD, 6 h pulse then 66 h release): 350 ± 50 nM
